Results reported in PubChem BioAssay (NCI).
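Assay format: 96-well plates, 48-hour exposure. Abbreviation: GI50, concentration required for 50% inhibition of growth. TGI marks complete inhibition of growth.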

Assays:
Test in all cases: NCI tumour cell line growth inhibition, 48 h
[1] = test system: SNB-75 CNS
[2] = test system: NCI-H460 lung
[3] = test system: MCF7 breast
[4] = test system: U251 CNS
[5] = test system: UACC-257 melanoma
[6] = test system: PC-3 prostate
[7] = test system: KM12 colon
[8] = test system: SW-620 colon
[9] = test system: HCC-2998 colon
[10] = test system: A498 renal
[11] = test system: SF-539 CNS
[12] = test system: A549 NSCLC
[13] = test system: TK-10 renal
[14] = test system: T-47D breast
[15] = test system: MDA-MB-231 breast
[16] = test system: SK-MEL-2 melanoma
[17] = test system: OVCAR-8 ovarian
[18] = test system: UO-31 renal
[19] = test system: K-562 leukemia
[20] = test system: LOX IMVI melanoma
[21] = test system: SK-MEL-28 melanoma
[22] = test system: UACC-62 melanoma
[23] = test system: BT-549 breast
[24] = test system: IGROV1 ovarian
[25] = test system: MALME-3M melanoma
[26] = test system: CCRF-CEM leukemia
[27] = test system: NCI-H226 lung
[28] = test system: HCT-15 colon
[29] = test system: NCI-H522 lung
[30] = test system: OVCAR-3 ovarian
[31] = test system: ACHN renal
[32] = test system: MDA-MB-435
[33] = test system: SN12C renal
[34] = test system: HS 578T breast
[35] = test system: OVCAR-4 ovarian
[36] = test system: HOP-62 NSCLC
[37] = test system: SK-OV-3 ovarian
[38] = test system: SF-268 CNS
[39] = test system: NCI-H23 lung
[40] = test system: RPMI-8226 leukemia
[41] = test system: DU-145 prostate
[42] = test system: HT29 colon
[43] = test system: 786-0 renal
[44] = test system: OVCAR-5 ovarian
[45] = test system: SK-MEL-5 melanoma
[46] = test system: EKVX NSCLC
[47] = test system: HOP-92 NSCLC
[48] = test system: HCT-116 colon
[49] = test system: CAKI-1 renal
[50] = test system: SNB-19 CNS
[51] = test system: RXF 393 renal
[52] = test system: M14 melanoma
[53] = test system: MDA-MB-468 breast
[54] = test system: COLO 205 colon
[55] = test system: SF-295 CNS

O=C(N/N=C/c1ccc(-c2ccc(O)cc2)s1)c1[nH]c2ccc(Br)cc2c1-c1ccccc1
GI50 [1]: 3.27 µM | TGI [1]: 12.4 µM | GI50 [2]: 2.72 µM | TGI [2]: 7.99 µM | GI50 [3]: 2.57 µM | TGI [3]: 10.9 µM | GI50 [4]: 3.63 µM | TGI [4]: 15.5 µM | GI50 [5]: 10.5 µM | TGI [5]: 28 µM | GI50 [6]: 3.17 µM | TGI [6]: 13.9 µM | GI50 [7]: 2.77 µM | TGI [7]: 9.53 µM | GI50 [8]: 4.14 µM | TGI [8]: 15.2 µM | GI50 [9]: 3.16 µM | TGI [9]: 10.6 µM | GI50 [10]: 5.57 µM | TGI [10]: 18.9 µM | GI50 [11]: 2.76 µM | TGI [11]: 8.43 µM | GI50 [12]: 4.28 µM | TGI [12]: 17.7 µM | GI50 [13]: 5.05 µM | TGI [13]: 19.3 µM | GI50 [14]: 4.6 µM | TGI [14]: 39.4 µM | GI50 [15]: 3.36 µM | TGI [15]: 11.5 µM | GI50 [16]: 3.45 µM | TGI [16]: 12.2 µM | GI50 [17]: 4.22 µM | TGI [17]: 17 µM | GI50 [18]: 2.7 µM | TGI [18]: 13.5 µM | GI50 [19]: 2.95 µM | TGI [19]: > 100 µM | GI50 [20]: 2 µM | TGI [20]: 5.51 µM | GI50 [21]: 3.22 µM | TGI [21]: 11.8 µM | GI50 [22]: 2.65 µM | TGI [22]: 10 µM | GI50 [23]: 2.95 µM | TGI [23]: 9.97 µM | GI50 [24]: 3.45 µM | TGI [24]: 12.9 µM | GI50 [25]: 2.41 µM | TGI [25]: 9.77 µM | GI50 [26]: 2.46 µM | TGI [26]: > 100 µM | GI50 [27]: 5.63 µM | TGI [27]: 20.9 µM | GI50 [28]: 2.72 µM | TGI [28]: 10.6 µM | GI50 [29]: 3.42 µM | TGI [29]: 14.3 µM | GI50 [30]: 3.38 µM | TGI [30]: 13.6 µM | GI50 [31]: 2.92 µM | TGI [31]: 10.9 µM | GI50 [32]: 2.99 µM | TGI [32]: 10.1 µM | GI50 [33]: 3.48 µM | TGI [33]: 13 µM | GI50 [34]: 3.02 µM | TGI [34]: 14.1 µM | GI50 [35]: 3.52 µM | TGI [35]: 14.1 µM | GI50 [36]: 6.32 µM | TGI [36]: 23.6 µM | GI50 [37]: 12.2 µM | TGI [37]: 27.8 µM | GI50 [38]: 5.16 µM | TGI [38]: 20.3 µM | GI50 [39]: 3.25 µM | TGI [39]: 11.2 µM | GI50 [40]: 3.14 µM | TGI [40]: > 100 µM | GI50 [41]: 4.48 µM | TGI [41]: 15.7 µM | GI50 [42]: 2.3 µM | TGI [42]: 5.36 µM | GI50 [43]: 2.16 µM | TGI [43]: 9.19 µM | GI50 [44]: 5.15 µM | TGI [44]: 17.2 µM | GI50 [45]: 1.87 µM | TGI [45]: 4.16 µM | GI50 [46]: 4.04 µM | TGI [46]: 14.8 µM | GI50 [47]: 2.98 µM | TGI [47]: 9.12 µM | GI50 [48]: 3.09 µM | TGI [48]: 11.7 µM | GI50 [49]: 3.46 µM | TGI [49]: 13.8 µM | GI50 [50]: 4.01 µM | TGI [50]: 14 µM | GI50 [51]: 1.92 µM | TGI [51]: 4.56 µM | GI50 [52]: 2.75 µM | TGI [52]: 10.5 µM | GI50 [53]: 2.67 µM | TGI [53]: 7.57 µM | GI50 [54]: 7.12 µM | TGI [54]: 23 µM | GI50 [55]: 2.2 µM | TGI [55]: 5.28 µM
